# In ChEMBL document CHEMBL1137324, “Novel selective orally active CRTH2 antagonists for allergic inflammation developed from in silico derived hits” (J Med Chem, 2006):
# Calls of active or inactive are those of the source. The calls are words filed in the database; no cut-off is given here.
# Assays:
# [1] = target: Phospholipase A2 (Homo sapiens) (UniProt P04054); test: Inhibition of PLA2 at 10 uM
# [2] = tested on: Mus musculus; test: Inhibition of goblet cell hyperplasia in BALB/c mouse at 5 mg/kg, po relative to control; type: functional, organism-based; set-up: dose 5 mg/kg
# [3] = target: fMet-Leu-Phe receptor (Homo sapiens) (UniProt P21462); test: Inhibition of human fMLP receptor at 10 uM
# [4] = target: Opioid receptors; mu/kappa/delta (Homo sapiens) (UniProt P41145+P41143+P35372); test: Inhibition of opiate receptor at 10 uM; type: protein assay
# [5] = target: Substance-P receptor (Homo sapiens) (UniProt P25103); test: Inhibition of human NK1 receptor at 10 uM
# [6] = target: Gastric inhibitory polypeptide receptor (Homo sapiens) (UniProt P48546); test: Inhibition of GIP receptor at 10 uM
# [7] = Half life in rat; type: ADME, organism-based; conditions: in vivo
# [8] = target: Muscarinic acetylcholine receptor (Homo sapiens) (UniProt P20309+P08173+P11229+P08172+P08912); test: Inhibition of human M receptor at 10 uM; type: protein assay
# [9] = target: Nociceptin receptor (Homo sapiens) (UniProt P41146); test: Inhibition of human ORL1 at 10 uM
# Nociceptin receptor (Homo sapiens), sequence (P41146 whole entry): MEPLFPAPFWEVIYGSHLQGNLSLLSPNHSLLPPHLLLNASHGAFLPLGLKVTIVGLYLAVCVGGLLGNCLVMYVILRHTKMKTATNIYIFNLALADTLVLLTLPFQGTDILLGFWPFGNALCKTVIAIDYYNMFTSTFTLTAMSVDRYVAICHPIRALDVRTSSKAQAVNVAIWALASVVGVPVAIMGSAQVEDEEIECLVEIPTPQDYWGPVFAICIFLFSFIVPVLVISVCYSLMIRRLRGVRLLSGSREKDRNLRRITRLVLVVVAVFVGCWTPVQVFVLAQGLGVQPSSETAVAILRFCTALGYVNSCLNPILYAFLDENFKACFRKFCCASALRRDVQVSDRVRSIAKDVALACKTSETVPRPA
# [10] = target: Thromboxane A2 receptor (Homo sapiens) (UniProt P21731); test: Inhibition of human TXA2 receptor at 10 uM
# [11] = target: Type-1 angiotensin II receptor (Homo sapiens) (UniProt P30556); test: Inhibition of human AT1 receptor at 10 uM
# Type-1 angiotensin II receptor (Homo sapiens), sequence (P30556 whole entry): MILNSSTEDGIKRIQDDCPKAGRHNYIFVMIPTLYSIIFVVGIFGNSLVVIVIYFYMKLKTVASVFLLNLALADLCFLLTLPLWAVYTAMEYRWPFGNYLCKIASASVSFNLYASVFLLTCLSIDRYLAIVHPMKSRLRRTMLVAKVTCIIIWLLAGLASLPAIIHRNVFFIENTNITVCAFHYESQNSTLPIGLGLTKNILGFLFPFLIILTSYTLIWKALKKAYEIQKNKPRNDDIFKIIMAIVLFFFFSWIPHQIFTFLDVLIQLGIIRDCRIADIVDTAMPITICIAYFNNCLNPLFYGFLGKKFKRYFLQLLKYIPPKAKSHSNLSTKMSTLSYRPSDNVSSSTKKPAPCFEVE
# [12] = species on record: Homo sapiens; test: Stability in human liver S9 fraction; type: ADME
# [13] = target: Adrenergic receptor alpha-2 (Homo sapiens) (UniProt P08913+P18825+P18089); test: Inhibition of alpha-2 receptor at 10 uM; type: protein assay
# [14] = target: Sigma non-opioid intracellular receptor 1 (Homo sapiens) (UniProt Q99720); test: Inhibition of sigma receptor at 10 uM
# [15] = tested on: Mus musculus; test: Inhibition of peribronchial eosinophilia in BALB/c mouse at 5 mg/kg, po relative to control; type: functional, organism-based; set-up: dose 5 mg/kg
# [16] = target: Type-2 angiotensin II receptor (Homo sapiens) (UniProt P50052); test: Inhibition of human AT2 receptor at 10 uM
# Type-2 angiotensin II receptor (Homo sapiens), sequence (P50052 whole entry): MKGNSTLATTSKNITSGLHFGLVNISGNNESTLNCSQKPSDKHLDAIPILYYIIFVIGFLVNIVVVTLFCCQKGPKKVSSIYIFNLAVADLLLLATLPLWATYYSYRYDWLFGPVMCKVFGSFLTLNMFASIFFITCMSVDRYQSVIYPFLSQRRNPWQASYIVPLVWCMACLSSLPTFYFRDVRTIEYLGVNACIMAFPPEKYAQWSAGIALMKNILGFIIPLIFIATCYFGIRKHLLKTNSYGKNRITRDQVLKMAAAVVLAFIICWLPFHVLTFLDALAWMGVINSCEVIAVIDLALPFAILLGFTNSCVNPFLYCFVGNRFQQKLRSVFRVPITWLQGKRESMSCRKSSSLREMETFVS
# [17] = target: Prostaglandin D2 receptor 2 (Mus musculus, UniProt Q9Z2J6); test: Inhibition of mouse CRTH2 receptor
# Prostaglandin D2 receptor 2, sequence (Q9Z2J6 whole entry): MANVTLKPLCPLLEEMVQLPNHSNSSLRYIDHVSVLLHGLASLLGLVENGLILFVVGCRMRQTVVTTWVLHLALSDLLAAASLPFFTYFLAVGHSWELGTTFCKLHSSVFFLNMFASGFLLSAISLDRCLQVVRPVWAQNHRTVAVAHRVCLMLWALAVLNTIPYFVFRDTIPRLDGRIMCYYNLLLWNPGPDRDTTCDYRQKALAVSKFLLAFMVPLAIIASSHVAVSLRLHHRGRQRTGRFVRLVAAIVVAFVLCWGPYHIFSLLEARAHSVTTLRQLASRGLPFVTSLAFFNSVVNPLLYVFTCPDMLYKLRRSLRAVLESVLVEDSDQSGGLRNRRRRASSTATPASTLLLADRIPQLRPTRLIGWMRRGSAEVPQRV
# [18] = target: Prostaglandin D2 receptor (Homo sapiens, UniProt Q13258); test: Inhibition of DP1
# Prostaglandin D2 receptor, sequence (Q13258 whole entry): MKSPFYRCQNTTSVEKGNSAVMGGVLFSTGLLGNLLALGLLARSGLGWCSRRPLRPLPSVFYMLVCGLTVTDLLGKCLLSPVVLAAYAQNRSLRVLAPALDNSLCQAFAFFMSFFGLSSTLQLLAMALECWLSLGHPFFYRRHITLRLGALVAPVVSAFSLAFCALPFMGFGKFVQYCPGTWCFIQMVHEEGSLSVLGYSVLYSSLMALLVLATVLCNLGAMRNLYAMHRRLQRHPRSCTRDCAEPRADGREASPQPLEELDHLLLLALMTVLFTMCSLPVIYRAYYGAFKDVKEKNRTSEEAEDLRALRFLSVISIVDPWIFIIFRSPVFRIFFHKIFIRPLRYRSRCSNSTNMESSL
# [19] = target: Endothelin-1 receptor (Homo sapiens) (UniProt P25101); test: Inhibition of human ETA receptor at 10 uM
# Endothelin-1 receptor (Homo sapiens), sequence (P25101 whole entry): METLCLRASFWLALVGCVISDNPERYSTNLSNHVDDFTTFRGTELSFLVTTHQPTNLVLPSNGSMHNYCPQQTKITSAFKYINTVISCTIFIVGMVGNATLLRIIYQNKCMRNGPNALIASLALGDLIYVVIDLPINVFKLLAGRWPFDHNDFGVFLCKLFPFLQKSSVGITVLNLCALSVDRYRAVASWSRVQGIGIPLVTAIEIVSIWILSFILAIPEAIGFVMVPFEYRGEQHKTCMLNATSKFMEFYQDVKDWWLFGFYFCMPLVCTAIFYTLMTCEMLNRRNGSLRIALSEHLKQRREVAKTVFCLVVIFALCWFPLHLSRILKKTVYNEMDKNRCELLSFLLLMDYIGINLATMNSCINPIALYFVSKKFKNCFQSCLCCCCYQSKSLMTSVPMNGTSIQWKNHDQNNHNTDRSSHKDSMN
# [20] = target: Cysteinyl leukotriene receptor 1 (Homo sapiens) (UniProt Q9Y271); test: Inhibition of human LTD4 receptor at 10 uM
# [21] = species on record: Rattus norvegicus; test: Stability in rat liver S9 fraction; type: ADME
# [22] = target: Sodium-dependent dopamine transporter (Homo sapiens) (UniProt Q01959); test: Inhibition of human DA transporter at 10 uM
# [23] = target: Beta-1 adrenergic receptor (Homo sapiens) (UniProt P08588); test: Inhibition of human beta-1 receptor at 10 uM
# Beta-1 adrenergic receptor (Homo sapiens), sequence (P08588 whole entry, looked up): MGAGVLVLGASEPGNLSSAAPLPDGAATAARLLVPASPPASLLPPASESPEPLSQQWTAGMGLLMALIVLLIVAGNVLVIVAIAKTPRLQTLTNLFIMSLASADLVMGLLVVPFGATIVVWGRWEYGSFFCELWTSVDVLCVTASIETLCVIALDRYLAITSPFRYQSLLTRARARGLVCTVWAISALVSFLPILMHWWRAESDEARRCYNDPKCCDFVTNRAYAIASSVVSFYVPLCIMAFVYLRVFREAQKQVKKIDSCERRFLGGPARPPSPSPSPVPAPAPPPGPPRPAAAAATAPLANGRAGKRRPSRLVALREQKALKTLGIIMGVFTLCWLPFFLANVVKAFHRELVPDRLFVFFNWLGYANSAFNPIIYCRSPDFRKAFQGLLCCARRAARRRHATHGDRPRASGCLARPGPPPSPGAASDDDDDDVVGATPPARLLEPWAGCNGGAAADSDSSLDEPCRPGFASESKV
# [24] = target: Prostaglandin G/H synthase 2 (Homo sapiens) (UniProt P35354); test: Inhibition of COX2 at 10 uM
# [25] = target: C5a anaphylatoxin chemotactic receptor 1 (Homo sapiens) (UniProt P21730); test: Inhibition of human C5a receptor at 10 uM
# C5a anaphylatoxin chemotactic receptor 1 (Homo sapiens), sequence (P21730 whole entry): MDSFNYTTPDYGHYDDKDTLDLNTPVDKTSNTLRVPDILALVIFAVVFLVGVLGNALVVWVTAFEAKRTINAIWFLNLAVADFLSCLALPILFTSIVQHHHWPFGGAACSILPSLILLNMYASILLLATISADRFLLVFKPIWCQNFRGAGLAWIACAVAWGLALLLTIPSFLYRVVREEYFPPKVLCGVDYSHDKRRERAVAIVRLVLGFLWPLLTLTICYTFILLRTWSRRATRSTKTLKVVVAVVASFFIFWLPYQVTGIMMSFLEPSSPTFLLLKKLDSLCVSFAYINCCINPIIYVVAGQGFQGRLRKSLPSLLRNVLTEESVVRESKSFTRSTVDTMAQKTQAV
# [26] = target: Prostaglandin G/H synthase 1 (Homo sapiens) (UniProt P23219); test: Inhibition of COX1 at 10 uM
# [27] = target: D(2) dopamine receptor (Homo sapiens) (UniProt P14416); test: Inhibition of human D2S receptor at 10 uM
# D(2) dopamine receptor (Homo sapiens), sequence (P14416 whole entry): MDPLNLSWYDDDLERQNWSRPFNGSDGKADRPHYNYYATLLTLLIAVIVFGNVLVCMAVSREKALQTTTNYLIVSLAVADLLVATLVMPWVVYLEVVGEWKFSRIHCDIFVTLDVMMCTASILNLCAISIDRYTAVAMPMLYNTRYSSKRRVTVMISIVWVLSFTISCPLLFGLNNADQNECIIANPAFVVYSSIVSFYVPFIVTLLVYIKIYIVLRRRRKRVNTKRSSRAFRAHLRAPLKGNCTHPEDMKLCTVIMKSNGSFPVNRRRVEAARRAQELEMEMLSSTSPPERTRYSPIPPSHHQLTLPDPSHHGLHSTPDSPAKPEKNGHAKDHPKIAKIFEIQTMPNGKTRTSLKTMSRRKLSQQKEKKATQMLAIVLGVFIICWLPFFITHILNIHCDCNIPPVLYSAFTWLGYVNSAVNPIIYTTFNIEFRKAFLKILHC
# [28] = Permeability from apical to basolateral side of Caco-2 cells; type: ADME, cell-based; conditions: human, read-out: permeability
# [29] = target: Polyunsaturated fatty acid lipoxygenase ALOX12 (Homo sapiens) (UniProt P18054); test: Inhibition of 12-LO at 10 uM
# Polyunsaturated fatty acid lipoxygenase ALOX12 (Homo sapiens), sequence (P18054 whole entry): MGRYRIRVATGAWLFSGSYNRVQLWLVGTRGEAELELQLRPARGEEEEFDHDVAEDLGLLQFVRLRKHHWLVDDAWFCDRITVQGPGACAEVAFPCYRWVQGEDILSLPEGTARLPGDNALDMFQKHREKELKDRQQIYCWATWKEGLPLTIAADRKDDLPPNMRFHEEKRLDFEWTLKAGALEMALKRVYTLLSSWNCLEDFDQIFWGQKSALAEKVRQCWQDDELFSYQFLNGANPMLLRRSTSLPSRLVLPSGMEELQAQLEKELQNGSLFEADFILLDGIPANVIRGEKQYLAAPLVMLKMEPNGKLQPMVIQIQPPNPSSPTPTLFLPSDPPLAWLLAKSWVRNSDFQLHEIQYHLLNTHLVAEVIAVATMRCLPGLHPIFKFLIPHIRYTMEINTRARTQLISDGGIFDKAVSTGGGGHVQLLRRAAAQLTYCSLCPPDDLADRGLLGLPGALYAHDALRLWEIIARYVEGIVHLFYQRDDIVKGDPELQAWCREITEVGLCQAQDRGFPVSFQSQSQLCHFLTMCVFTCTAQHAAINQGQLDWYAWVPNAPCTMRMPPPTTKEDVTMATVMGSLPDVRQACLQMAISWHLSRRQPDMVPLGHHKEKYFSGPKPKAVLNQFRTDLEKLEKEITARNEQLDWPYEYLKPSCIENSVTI
# [30] = target: D(1A) dopamine receptor (Homo sapiens) (UniProt P21728); test: Inhibition of human D1 receptor at 10 uM
# [31] = target: T1, GABA-A receptor; anion channel (Homo sapiens) (UniProt P14867+P47870+P18507+P28472+P48169+Q99928+Q9UN88+P34903+O00591+O14764+Q8N1C3+P18505+P78334+P47869+P31644+Q16445); test: Inhibition of human GABA receptor at 10 uM; type: protein-complex assay
# [32] = target: Prostaglandin D2 receptor (Homo sapiens) (UniProt Q13258); test: Inhibition of human DP receptor at 10 uM
# [33] = target: Histamine H1 receptor (Homo sapiens) (UniProt P35367); test: Inhibition of human H1 receptor at 10 uM
# [34] = target: B2 bradykinin receptor (Homo sapiens) (UniProt P30411); test: Inhibition of human B2 receptor at 10 uM
# [35] = tested on: Mus musculus; test: Inhibition of peribronchial eosinophilia in BALB/c mouse at 100 mg/kg, po relative to control; type: functional
# [36] = target: Type-1 angiotensin II receptor (Homo sapiens) (UniProt P30556); test: Inhibition of AT1
# [37] = Aqueous solubility at pH 1; type: physicochemical; conditions: buffer
# [38] = target: Melanocortin receptor 4 (Homo sapiens) (UniProt P32245); test: Inhibition of human MC4 receptor at 10 uM
# [39] = target: T1, GABA-A receptor; anion channel (Homo sapiens); test: Inhibition of central BZD receptor at 10 uM; type: protein-complex assay
# [40] = target: Platelet-activating factor receptor (Homo sapiens) (UniProt P25105); test: Inhibition of human PAF receptor at 10 uM
# [41] = target: Type-2 angiotensin II receptor (Homo sapiens) (UniProt P50052); test: Inhibition of AT2
# [42] = target: Adenosine receptor A1 (Homo sapiens) (UniProt P30542); test: Inhibition of human A1 receptor at 10 uM
# [43] = target: Glutamate [NMDA] receptor (Homo sapiens) (UniProt Q05586+Q12879+Q13224+O15399+O60391+Q14957+Q8TCU5); test: Inhibition of human PCP receptor at 10 uM; type: protein-complex assay
# [44] = target: Cholecystokinin receptor type A (Homo sapiens) (UniProt P32238); test: Inhibition of human CCKA receptor at 10 uM
# [45] = target: Chemerin-like receptor 1 (Homo sapiens) (UniProt Q99788); test: Inhibition of ChemR23 receptor at 10 uM
# Chemerin-like receptor 1 (Homo sapiens), sequence (Q99788 whole entry): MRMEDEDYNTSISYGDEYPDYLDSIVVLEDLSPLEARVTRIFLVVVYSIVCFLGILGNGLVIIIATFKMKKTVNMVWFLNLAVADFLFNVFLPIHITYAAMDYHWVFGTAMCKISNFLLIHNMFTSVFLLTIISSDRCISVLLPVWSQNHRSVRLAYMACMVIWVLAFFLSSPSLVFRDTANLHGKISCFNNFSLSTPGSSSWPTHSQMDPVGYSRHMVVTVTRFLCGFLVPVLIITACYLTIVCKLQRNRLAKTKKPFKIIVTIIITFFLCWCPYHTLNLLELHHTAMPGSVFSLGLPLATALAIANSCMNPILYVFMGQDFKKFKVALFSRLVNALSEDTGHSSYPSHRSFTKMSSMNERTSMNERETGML
# [46] = Distribution coefficient, log D at pH 7.4; type: physicochemical; conditions: octanol/water
# [47] = Aqueous solubility in PBS at pH 7.4; type: physicochemical
# [48] = target: Polyunsaturated fatty acid lipoxygenase ALOX15 (Homo sapiens) (UniProt P16050); test: Inhibition of 15-LO at 10 uM
# [49] = target: Sodium-dependent noradrenaline transporter (Homo sapiens) (UniProt P23975); test: Inhibition of human NE transporter at 10 uM
# [50] = target: Histamine H2 receptor (Homo sapiens) (UniProt P25021); test: Inhibition of human H2 receptor at 10 uM
# Histamine H2 receptor (Homo sapiens), sequence (P25021 whole entry): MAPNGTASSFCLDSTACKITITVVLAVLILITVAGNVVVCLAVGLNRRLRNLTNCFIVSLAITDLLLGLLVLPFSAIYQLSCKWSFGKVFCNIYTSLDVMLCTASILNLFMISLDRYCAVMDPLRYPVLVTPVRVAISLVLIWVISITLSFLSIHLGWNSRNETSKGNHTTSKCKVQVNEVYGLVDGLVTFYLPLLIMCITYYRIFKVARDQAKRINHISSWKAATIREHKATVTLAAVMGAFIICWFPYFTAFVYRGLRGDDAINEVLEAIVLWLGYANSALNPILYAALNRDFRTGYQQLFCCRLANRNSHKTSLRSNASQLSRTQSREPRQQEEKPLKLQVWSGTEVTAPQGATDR
# [51] = target: Glucocorticoid receptor (Homo sapiens) (UniProt P04150); test: Inhibition of human glucocorticoid receptor at 10 uM
compound,measurement,setting,value
O=C(O)COc1ccc(Br)cc1C(=O)c1cnn(-c2ccccc2)c1,inhibition,[1],< 20%
same,Activity,[2],Active
same,inhibition,[3],< 30%
same,inhibition,[4],< 30%
same,inhibition,[5],< 30%
same,inhibition,[6],< 30%
same,half-life,[7],2.7 h
same,inhibition,[8],< 30%
same,inhibition,[9],< 30%
same,inhibition,[10],< 30%
same,inhibition,[11],< 30%
same,Stability,[12],93%
same,inhibition,[13],< 30%
same,inhibition,[14],< 30%
same,Activity,[15],Active
same,inhibition,[16],< 30%
same,IC50,[17],3.2 nM
same,IC50,[18],> 100000 nM
same,inhibition,[19],< 30%
same,inhibition,[20],< 30%
same,Stability,[21],92%
same,inhibition,[22],< 30%
same,inhibition,[23],< 30%
same,inhibition,[24],< 20%
same,inhibition,[25],< 30%
same,inhibition,[26],< 20%
same,inhibition,[27],< 30%
same,Papp A→B,[28],8.7 ×10⁻⁶ cm/s
same,inhibition,[29],< 20%
same,inhibition,[30],< 30%
same,inhibition,[31],< 30%
same,inhibition,[32],< 30%
same,inhibition,[33],< 30%
same,inhibition,[34],< 30%
same,inhibition in vivo at 100 mg/kg,[35],55%
same,Activity,[36],inactive
same,solubility,[37],80 µM
same,inhibition,[38],< 30%
same,inhibition,[39],< 30%
same,inhibition,[40],< 30%
same,Activity,[41],inactive
same,inhibition,[42],< 30%
same,inhibition,[43],< 30%
same,inhibition,[44],< 30%
same,inhibition,[45],< 30%
same,logD,[46],0.64
same,solubility,[47],200 µM
same,inhibition,[48],< 20%
same,inhibition,[49],< 30%
same,inhibition,[50],< 30%
same,inhibition,[51],< 30%
